We go through one compound from patent publication US12630501B2, “Anti-fibrotic compounds and use thereof” (HADASIT MEDICAL RESEARCH SERVICES AND DEVELOPMENT LTD., priority 2019, dated 2026).

One test concerns the target T1, HDAC8 (Homo sapiens, UniProt Q9BY41).
T1 sequence (Q9BY41 1-377): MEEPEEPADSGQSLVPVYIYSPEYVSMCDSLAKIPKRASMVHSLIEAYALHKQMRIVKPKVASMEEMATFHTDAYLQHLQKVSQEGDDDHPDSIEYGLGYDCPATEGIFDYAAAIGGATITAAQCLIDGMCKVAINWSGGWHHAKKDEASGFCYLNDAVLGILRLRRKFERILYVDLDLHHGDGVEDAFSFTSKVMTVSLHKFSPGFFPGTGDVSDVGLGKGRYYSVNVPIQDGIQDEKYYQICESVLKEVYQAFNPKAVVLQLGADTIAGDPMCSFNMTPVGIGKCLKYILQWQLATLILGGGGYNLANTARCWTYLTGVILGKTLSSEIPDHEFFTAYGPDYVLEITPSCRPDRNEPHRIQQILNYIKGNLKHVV
To be noted: prostate cancer cells; cited from earlier work.

A further test has as its target T2, HDAC10 (Homo sapiens, UniProt Q969S8).
T2 sequence (Q969S8 1-669): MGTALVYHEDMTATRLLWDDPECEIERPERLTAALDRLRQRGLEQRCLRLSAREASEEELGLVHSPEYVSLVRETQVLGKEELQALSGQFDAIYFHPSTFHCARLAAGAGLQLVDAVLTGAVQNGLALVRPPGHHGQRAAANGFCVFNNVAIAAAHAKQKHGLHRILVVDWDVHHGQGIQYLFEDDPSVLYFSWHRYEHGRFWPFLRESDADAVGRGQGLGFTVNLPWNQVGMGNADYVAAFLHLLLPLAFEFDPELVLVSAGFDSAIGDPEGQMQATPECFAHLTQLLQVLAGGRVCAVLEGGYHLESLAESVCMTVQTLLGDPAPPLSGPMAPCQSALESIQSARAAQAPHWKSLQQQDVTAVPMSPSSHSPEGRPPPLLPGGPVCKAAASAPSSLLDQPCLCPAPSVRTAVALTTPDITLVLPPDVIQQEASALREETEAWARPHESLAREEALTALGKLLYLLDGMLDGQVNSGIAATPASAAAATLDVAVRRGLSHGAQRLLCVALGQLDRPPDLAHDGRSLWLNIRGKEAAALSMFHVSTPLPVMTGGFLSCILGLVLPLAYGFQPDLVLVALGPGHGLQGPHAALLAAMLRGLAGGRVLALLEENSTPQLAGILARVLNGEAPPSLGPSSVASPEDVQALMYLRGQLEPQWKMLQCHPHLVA
The note with it: prostate cancer cells; cited from earlier work.

The target of another test is T3, HDAC6 (Homo sapiens, UniProt Q9UBN7).
T3 sequence (Q9UBN7 1-1215): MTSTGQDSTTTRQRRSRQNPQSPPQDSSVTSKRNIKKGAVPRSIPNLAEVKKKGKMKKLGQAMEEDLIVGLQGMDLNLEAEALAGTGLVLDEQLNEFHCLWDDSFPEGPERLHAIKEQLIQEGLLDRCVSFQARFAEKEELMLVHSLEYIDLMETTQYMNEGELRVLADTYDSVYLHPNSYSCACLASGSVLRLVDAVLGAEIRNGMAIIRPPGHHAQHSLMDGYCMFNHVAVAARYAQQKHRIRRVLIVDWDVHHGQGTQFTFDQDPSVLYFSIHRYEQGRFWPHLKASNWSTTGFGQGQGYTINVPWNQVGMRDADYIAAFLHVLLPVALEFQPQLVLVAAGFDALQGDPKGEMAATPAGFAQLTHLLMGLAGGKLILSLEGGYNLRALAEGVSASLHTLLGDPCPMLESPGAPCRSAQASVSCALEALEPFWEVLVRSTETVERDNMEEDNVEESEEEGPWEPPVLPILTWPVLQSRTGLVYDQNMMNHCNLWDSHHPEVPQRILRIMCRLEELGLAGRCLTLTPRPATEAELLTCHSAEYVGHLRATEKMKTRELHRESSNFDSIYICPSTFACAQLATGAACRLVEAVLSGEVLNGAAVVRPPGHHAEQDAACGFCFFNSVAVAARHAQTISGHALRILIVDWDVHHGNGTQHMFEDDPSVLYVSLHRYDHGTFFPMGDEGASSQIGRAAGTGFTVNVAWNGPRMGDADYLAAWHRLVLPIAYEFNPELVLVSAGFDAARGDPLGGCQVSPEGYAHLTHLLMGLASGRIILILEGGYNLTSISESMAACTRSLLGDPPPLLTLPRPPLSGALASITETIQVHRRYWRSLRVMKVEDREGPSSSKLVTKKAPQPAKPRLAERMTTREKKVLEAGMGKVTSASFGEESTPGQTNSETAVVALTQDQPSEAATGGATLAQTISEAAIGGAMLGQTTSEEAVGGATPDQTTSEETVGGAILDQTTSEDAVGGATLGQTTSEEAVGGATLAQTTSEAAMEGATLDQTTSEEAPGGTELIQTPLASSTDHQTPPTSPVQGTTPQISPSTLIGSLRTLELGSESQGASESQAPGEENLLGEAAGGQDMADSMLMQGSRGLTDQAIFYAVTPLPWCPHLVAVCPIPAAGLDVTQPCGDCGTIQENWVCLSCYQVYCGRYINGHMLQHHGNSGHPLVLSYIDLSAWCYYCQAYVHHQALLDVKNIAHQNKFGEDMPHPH
The note with it: prostate cancer cells; cited from earlier work.

The subject of a further test is IPF cell line ATCC191. The test can be described thus: Total cell-lysate pan-acetyl immunoblot. In kind it is cell-based, human. The note with it: CMH 30 μM; vehicle 0.62. How it is done:
IPF cell line ATCC191 and Normal cell line ATCC151 (0.5×10^6, 191 and 151, respectively), were cultured (10% DMEM) and total cell acetylations was compared. IPF cell line ATCC191 were further exposed in culture (10% DMEM) to CMH (30 μM, vs. 4% DMSO (vehicle)). Total cell-lysate immunoblots with subsequent pan-acetyl in IPF-lung vs. normal-lung myofibroblasts (191 vs. 151) was measured (FIG. 7A). IPF-lung myofibroblasts treated with CMH were compared to control treatment with vehicle (FIG. 7B). […] Thus, CMH inhibits IPF cell proteins-deacetylation and normalized it.

Consider `Cc1cc(Cl)ccc1OCCCC(=O)NO` [CMH, 4-(4-chloro-2-methylphenoxy)-N-hydroxybutanamide], for which the “Inhibition of HDAC8” value at HDAC8 is “Selective inhibition”. At HDAC10, the “Inhibition of HDAC10” value is reported as “not inhibited”. For the same compound, the “Inhibition of HDAC6” value at HDAC6 was “Selective inhibition”. In addition, the “Protein acetylation, optical density ratio to GAPDH (OD) in pan-acetyl immunoblots” value with IPF cell line ATCC191 came out at 1.77 OD.
